Experimental data: publication PMC9144402, “An Octopus-Derived Peptide with Antidiuretic Activity in Rats” (Marine Drugs, 2022)
Positions of bridges follow the written chain, without caps; N, C: chain ends. Residues, ends and D or L forms follow the SMILES beside them. No end group written: not given here.

Columns and labels:
rat V1bR = system: rat V1bR; set-up: method as in PMID 9264324; conditions: ref [8]; cited from earlier work
Sprague-Dawley (SD) rats [1] = assay: Antidiuretic experiment in SD rats (single tail intravenous injection, metabolic cage); assay type: in vivo, rat
[2] = system: HEK293T human kidney cells; assay: CCK-8 cell viability assay and morphology, HEK293T; assay type: cell-based; conditions: for viable HEK293T cells: 0.1–50 μM
Procedure: Human kidney HEK293T cells were obtained from the American Type Culture Collection (ATCC, Manassas, VA, USA). The 293T cells were grown in DMEM supplemented with 10% fetal bovine serum (HyClone, Logan, UT, USA) and penicillin–streptomycin. Cells were incubated at 37 °C in a humidified atmosphere with 95% air/5% CO2. HEK293T cells (5 × 10^3) were incubated in 96-well plates to measure cell viability using a Cell Counting Kit-8 (CCK-8; Dojindo Laboratories, Kumamoto, Japan). After overnight incubation, the medium was changed to fresh medium containing CPT at doses of 50~0.1 μM in three wells each. Then, the cells were incubated for 24, 48, or 72 h and photographed under a phase-contrast microscope. We added 100 μL of fresh medium and 10 μL of CCK-8 solution to each well. After incubation for 3 h at 37 °C, the optical density (OD) at 450 nm was measured using a Spectramax i3x instrument (Molecular Devices, San Jose, CA, USA). The cell viability was calculated as follows: cell viability (%) = (OD (experiment) − OD (blank))/(OD (control) − OD (blank)) × 100%

[3] = administered intravenously; no reference printed ('generally known'); cited from earlier work
rat V2R = system: rat V2R; set-up: method as in PMID 9264324; conditions: ref [8]; cited from earlier work
Sprague-Dawley (SD) rats [4] = assay: Death and signs of toxicity after intravenous injection in SD rats; assay type: in vivo, rat; conditions: for death or signs of toxicity: injection, 'the same doses' (AVP: data not shown)
human V2R = target: T1, human V2R (Homo sapiens, UniProt P30518); assay: V2R functional assay, agonist effect (cAMP accumulation, HTRF, CHO cells); assay type: cell-based
T1 construct: host or cells: CHO
Procedure: (§1) Detailed information about the cells tested and other experimental conditions are described in Table 2. Briefly, cells were transfected with a recombinant expression vector capable of expressing each type of human OXT/AVP receptor. To evaluate the agonist effects on OXTR, V1aR, and V1bR, the intracellular Ca^2+ increase after treatment with OTP or CPT was measured by fluorimetry. […] For V2R receptors, cells were treated with peptides with or without the stimulant for 30 min. After that, cyclic AMP (cAMP) concentrations were measured by homogeneous time-resolved fluorescence (HTRF). The results were represented as the percent submaximal response achieved by the stimulant. All experiments were performed in triplicate. Data are presented as the mean ± standard error of the mean. The 50% effective concentration (EC50) and 50% inhibitory concentration (IC50) values were determined using a 4-parameter logistic fitting of a dose–response curve using SigmaPlot 10.0 (Systat Software, Palo Alto, CA, USA).

human V1bR = target: T2, human V1bR (Homo sapiens, UniProt P47901); assay: V1bR functional assay, agonist effect (intracellular Ca^2+ increase, fluorimetry, RBL cells); assay type: cell-based
T2 construct: host or cells: RBL
T2 sequence (P47901 1-424): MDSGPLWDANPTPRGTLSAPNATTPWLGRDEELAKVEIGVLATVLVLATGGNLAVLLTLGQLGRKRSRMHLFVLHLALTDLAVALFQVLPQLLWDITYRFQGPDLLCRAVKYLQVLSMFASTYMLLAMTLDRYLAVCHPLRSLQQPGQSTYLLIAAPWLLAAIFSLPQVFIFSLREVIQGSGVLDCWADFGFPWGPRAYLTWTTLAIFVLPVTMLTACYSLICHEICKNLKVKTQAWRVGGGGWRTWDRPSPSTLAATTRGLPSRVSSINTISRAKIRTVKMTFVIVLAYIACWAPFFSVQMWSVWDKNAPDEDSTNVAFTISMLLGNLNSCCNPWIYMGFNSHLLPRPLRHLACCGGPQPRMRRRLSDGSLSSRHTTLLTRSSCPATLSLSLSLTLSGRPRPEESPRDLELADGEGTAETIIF
Procedure: as §1

human V1aR [5] = target: T3, human V1aR (Homo sapiens, UniProt P37288); assay: V1aR functional assay, agonist effect (intracellular Ca^2+ increase, fluorimetry, CHO cells); assay type: cell-based; conditions: up to 50 μM, RT, % of control response (1 µM AVP), triplicate
T3 construct: host or cells: CHO
Procedure: as §1

human OXTR [6] = target: T4, human OXTR (Homo sapiens, UniProt P30559); assay: OXTR functional assay, agonist effect (intracellular Ca^2+ increase, fluorimetry, transfected ECV304 cells); assay type: cell-based; conditions: up to 50 μM, RT, % of control response (1 µM OXT), triplicate
T4 construct: host or cells: ECV304
T4 sequence (P30559 1-389): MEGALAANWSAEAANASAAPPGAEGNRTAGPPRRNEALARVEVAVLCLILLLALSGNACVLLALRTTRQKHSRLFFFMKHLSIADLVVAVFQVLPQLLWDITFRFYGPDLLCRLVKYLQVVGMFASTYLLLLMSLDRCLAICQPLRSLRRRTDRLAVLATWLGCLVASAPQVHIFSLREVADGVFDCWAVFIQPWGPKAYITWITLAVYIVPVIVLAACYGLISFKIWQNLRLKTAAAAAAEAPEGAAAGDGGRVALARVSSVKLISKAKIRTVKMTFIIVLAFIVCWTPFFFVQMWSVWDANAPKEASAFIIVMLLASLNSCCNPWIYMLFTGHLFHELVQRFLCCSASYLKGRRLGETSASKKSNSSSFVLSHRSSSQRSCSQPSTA
Procedure: as §1

human OXTR [7] = target: T4, human OXTR; assay: OXTR functional assay, antagonist effect (30 nM OXT-induced intracellular Ca^2+, fluorimetry, ECV304 cells); assay type: cell-based
Procedure: as §1

human V1aR [8] = target: T3, human V1aR; assay: V1aR functional assay, antagonist effect (10 nM AVP-induced intracellular Ca^2+, fluorimetry, CHO cells); assay type: cell-based
Procedure: as §1

[9] = treatment of nocturia, enuresis, and diabetes insipidus; ref [26]; cited from earlier work
Description: (§2) Currently, desmopressin is the antidiuretic drug of choice for the treatment of excessive and/or uncontrolled urination. […] Although desmopressin is generally considered safe and efficacious in the treatment o ...

V1aR [10] = conditions: no reference given; cited from earlier work
Description: as §2

V1aR [11] = conditions: ref [17]; cited from earlier work
[12] = target: T5, human AVP type 1b receptor (human) (UniProt P47901)
T5 sequence: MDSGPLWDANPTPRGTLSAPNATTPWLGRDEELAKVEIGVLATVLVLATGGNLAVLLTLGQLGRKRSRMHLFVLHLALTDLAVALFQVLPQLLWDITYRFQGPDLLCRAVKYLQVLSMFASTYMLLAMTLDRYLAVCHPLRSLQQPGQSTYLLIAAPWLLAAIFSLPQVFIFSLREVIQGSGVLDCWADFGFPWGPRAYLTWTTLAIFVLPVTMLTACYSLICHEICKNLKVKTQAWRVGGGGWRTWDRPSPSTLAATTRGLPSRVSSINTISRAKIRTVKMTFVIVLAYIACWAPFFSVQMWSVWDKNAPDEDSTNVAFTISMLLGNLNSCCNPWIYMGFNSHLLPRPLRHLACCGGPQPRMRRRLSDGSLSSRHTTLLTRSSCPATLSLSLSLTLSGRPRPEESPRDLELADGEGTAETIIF

[13] = target: human oxytocin receptor (human) (UniProt P30559)
[14] = target: human AVP type 2 receptor (human) (UniProt P30518)
[15] = target: human vasopressin receptor V1aR (human) (UniProt P37288)
[16] = target: human oxytocin receptor (human) (UniProt P30559); remark: listed apart in the source
[17] = target: human AVP type 2 receptor (human) (UniProt P30518); remark: listed apart in the source
[18] = 24 h after treatment, CCK-8, triplicate
[19] = 48 h after treatment, CCK-8, triplicate
[20] = nanomolar level of CPT (Figure 2E, 36.55 nM), calculated by curve-fitting

T3 sequence (P37288 whole entry): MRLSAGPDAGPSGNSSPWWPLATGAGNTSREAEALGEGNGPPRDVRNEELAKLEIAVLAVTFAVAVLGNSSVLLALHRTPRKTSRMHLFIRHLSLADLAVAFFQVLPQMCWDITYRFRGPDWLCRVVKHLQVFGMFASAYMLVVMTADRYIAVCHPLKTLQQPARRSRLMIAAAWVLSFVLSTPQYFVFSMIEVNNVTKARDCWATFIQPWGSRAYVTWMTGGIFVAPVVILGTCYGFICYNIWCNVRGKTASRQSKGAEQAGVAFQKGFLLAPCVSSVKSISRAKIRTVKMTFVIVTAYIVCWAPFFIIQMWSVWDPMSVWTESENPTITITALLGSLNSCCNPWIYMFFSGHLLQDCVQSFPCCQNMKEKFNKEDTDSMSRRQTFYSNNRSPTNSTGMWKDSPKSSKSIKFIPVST
Chain of human vasopressin receptor V1aR (human) (P37288 whole entry): as above

NC(=O)CC[C@@H]1NC(=O)[C@H](Cc2ccccc2)NC(=O)[C@H](Cc2ccc(O)cc2)NC(=O)[C@@H](N)CSSC[C@@H](C(=O)N2CCC[C@H]2C(=O)N[C@@H](CCCN=C(N)N)C(=O)NCC(N)=O)NC(=O)[C@H](CC(N)=O)NC1=O [AVP, arginine vasopressin]
EC50 (rat V1bR): 1.31 nM
antidiuretic effect (in words) (Sprague-Dawley (SD) rats [1]; SD rats, 0.001 mg/mL/kg micro intravenous tail administration): shows an antidiuretic effect
viable HEK293T cells [2, 18]: Over 98%
viable HEK293T cells [2, 19]: Over 98%
viability compared to PBS control (in words) ([2]; 72 h, 0.1–10 μM, CCK-8, triplicate): slightly increase the viability
half-life [3]: several minutes
EC50 (rat V2R): 43.5 nM
lethality (Sprague-Dawley (SD) rats [4]; 0.001 mg/mL/kg micro intravenous tail administration): occasionally lethal
death or signs of toxicity (Sprague-Dawley (SD) rats [4]): occasionally caused death

CC[C@H](C)[C@H](NC(=O)[C@@H]1CCCN1C(=O)[C@@H]1CSSC[C@H](N)C(=O)N[C@@H](Cc2ccc(O)cc2)C(=O)N[C@@H](Cc2ccccc2)C(=O)N[C@@H](CCCNC(=N)N)C(=O)N[C@@H](CC(N)=O)C(=O)N1)C(=O)NCC(N)=O [CPT, cephalotocin] (H-CYFRNCPIG-NH2; disulfide 1-6)
EC50 (human V2R; CHO, cAMP, HTRF, 30 min RT, 4-parameter logistic fitting, triplicate): 12.1 nM
expected V2R activation, nanomolar level (human V2R; [20]): ~ 80%
EC50 (human V1bR; RBL, intracellular Ca^2+, fluorimetry, RT, 4-parameter logistic fitting, triplicate): 10 nM
expected V1bR activation, nanomolar level (human V1bR; [20]): ~ 80%
V1aR-mediated intracellular Ca^2+ increase (agonist effect) (human V1aR [5]): not activated
OXTR-mediated intracellular Ca^2+ increase (agonist effect) (human OXTR [6]): not activated
cell morphology [2]: unchanged
viable HEK293T cells [2, 18]: Over 98%
viable HEK293T cells [2, 19]: Over 98%
IC50 (human OXTR [7]; ECV304, stimulant 30 nM OXT, RT, fluorimetry, 4-parameter logistic fitting, triplicate): > 50000 nM
expected effect on OXTR, nanomolar level (human OXTR [7]; [20]): < 20%
death or signs of toxicity (Sprague-Dawley (SD) rats [4]): did not cause any death or signs of toxicity
lethality (Sprague-Dawley (SD) rats [4]; single intravenous injection (1 mg/mL/kg)): did not kill the experimental animals
IC50 (human V1aR [8]): 1230 nM
inhibition at 1.65 µM (human V1aR [8]; CHO, micromolar level (Figure 2F, 1.65 μM), calculated by curve-fitting, read-out: expected V1aR inhibition, micromolar level): ≥ 50%
expected effect on V1aR, nanomolar level (human V1aR [8]; [20]): < 20%

Mpr-YFQNCP(D-Arg)G-NH2 (disulfide bond) (disulfide) [Desmopressin, 1-deamino-8-D-arginine vasopressin, positive control]
serious adverse effect [9]: hyponatremia
V1aR-mediated pressor activity (V1aR [10]): low
osmolarity (in words) (Sprague-Dawley (SD) rats [1]; male rats under 200 g, single microvenous injection, n=6 for each group): no change
half-life [3]: several hours
death or signs of toxicity (Sprague-Dawley (SD) rats [4]): did not cause any death or signs of toxicity

inotocin
V1aR activity (in words) (V1aR [11]): selective antagonists of V1aR

B1: Cephalotocin (peptide)
peptide: CYFRNCPIG-NH2
modifications: disulfide 1-6; N-terminus assumed
SMILES: CC[C@H](C)[C@H](NC(=O)[C@@H]1CCCN1C(=O)[C@@H]1CSSC[C@H](N)C(=O)N[C@@H](Cc2ccc(O)cc2)C(=O)N[C@@H](Cc2ccccc2)C(=O)N[C@@H](CCCNC(=N)N)C(=O)N[C@@H](CC(N)=O)C(=O)N1)C(=O)NCC(N)=O
EC50 of V1bR-mediated intracellular Ca^2+ release (agonist effect) in RBL cells expressing human V1bR, fluorimetry [12]: 10 nM
IC50 of the antagonist effect on intracellular Ca^2+ release induced by 30 nM OXT in ECV304 cells expressing human OXTR (pair blocked: OXT and OXTR) [13]: > 50000 nM
EC50 of V2R-mediated cAMP accumulation (agonist effect) in CHO cells expressing human V2R, HTRF [14]: 12.1 nM
IC50 of the antagonist effect on intracellular Ca^2+ release induced by 10 nM AVP in CHO cells expressing human V1aR (pair blocked: AVP and V1aR) [15]: 1230 nM

B2: Octopressin (peptide)
peptide: CYWTSCPIG-NH2
modifications: disulfide 1-6; N-terminus assumed
SMILES: CC[C@H](C)[C@H](NC(=O)[C@@H]1CCCN1C(=O)[C@@H]1CSSC[C@H](N)C(=O)N[C@@H](Cc2ccc(O)cc2)C(=O)N[C@@H](Cc2c[nH]c3ccccc23)C(=O)N[C@@H]([C@@H](C)O)C(=O)N[C@@H](CO)C(=O)N1)C(=O)NCC(N)=O
antagonist effect on intracellular Ca^2+ release induced by 30 nM OXT in ECV304 cells expressing human OXTR (pair blocked: OXT and OXTR), inhibition rate at 50 μM OTP [16]: 30%
V2R-mediated cAMP accumulation (agonist effect) in CHO cells expressing human V2R, percent of the control response at 50 μM OTP [17]: < 30%
